# Experiments:
# Test in all cases: relative viability (nuclei count vs DMSO), 5 days (fraction); higher = more cells survive
# Kobe2602 + Tozasertib = compound: C1=CC(=CC=C1NC(=S)NNC2=C(C=C(C=C2[N+](=O)[O-])C(F)(F)F)[N+](=O)[O-])F [Kobe2602] + Cc1cc(Nc2cc(N3CCN(C)CC3)nc(Sc3ccc(NC(=O)C4CC4)cc3)n2)n[nH]1 [Tozasertib] (partner 0.1 µM)
# Outline: (§1)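 Relative viability was taken as the ratio of nuclei in treated wells to nuclei in vehicle wells. Lung cancer cell lines in 1536-well plates received compounds by pin tool one day after seeding, either one drug alone or a fixed anchor-drug dose plus five library-drug doses (not always all listed) in √10 steps. Nuclei were counted on 4× images after 5 days of treatment, and values are medians of duplicate plates.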
# Kobe2602 + Olaparib = compound: C1=CC(=CC=C1NC(=S)NNC2=C(C=C(C=C2[N+](=O)[O-])C(F)(F)F)[N+](=O)[O-])F [Kobe2602] + O=C(c1cc(Cc2n[nH]c(=O)c3ccccc23)ccc1F)N1CCN(C(=O)C2CC2)CC1 [Olaparib] (partner 8 µM)
# Outline: as §1
# [1] = compound: COc1cc2nccc(Oc3ccc(NC(=O)C4(C(=O)Nc5ccc(F)cc5)CC4)cc3)c2cc1OC [Cabozantinib] + C[C@]1(O)C[C@@H](c2nc(-c3ccc4ccc(-c5ccccc5)nc4c3)c3c(N)nccn32)C1 [Linsitinib] (partner 1 µM)
# Outline: as §1
# [2] = compound: COc1cc2nccc(Oc3ccc(NC(=O)C4(C(=O)Nc5ccc(F)cc5)CC4)cc3)c2cc1OC [Cabozantinib] + N=C(N)NC(=N)NCCc1ccccc1 [Phenformin] (partner 250 µM)
# Outline: as §1
Cell Line,relative viability (Kobe2602 + Tozasertib; first compound 0.2 µM),relative viability (Kobe2602 + Tozasertib; first compound 0.6325 µM),relative viability (Kobe2602 + Tozasertib; first compound 2 µM),relative viability (Kobe2602 + Tozasertib; first compound 6.325 µM),relative viability (Kobe2602 + Tozasertib; first compound 20 µM),relative viability (Kobe2602 + Olaparib; first compound 0.2 µM),relative viability (Kobe2602 + Olaparib; first compound 0.6325 µM),relative viability (Kobe2602 + Olaparib; first compound 2 µM),relative viability (Kobe2602 + Olaparib; first compound 6.325 µM),relative viability (Kobe2602 + Olaparib; first compound 20 µM),relative viability ([1]; first compound 0.02 µM),relative viability ([1]; first compound 0.06325 µM),relative viability ([1]; first compound 0.2 µM),relative viability ([1]; first compound 0.6325 µM),relative viability ([1]; first compound 2 µM),relative viability ([2]; first compound 0.02 µM),relative viability ([2]; first compound 0.06325 µM),relative viability ([2]; first compound 0.2 µM),relative viability ([2]; first compound 0.6325 µM),relative viability ([2]; first compound 2 µM)
NCI-H441,0.692,0.638,0.543,0.708,0.635,0.581,0.716,0.66,0.511,0.545,0.53,0.721,0.686,0.46,0.418,0.556,0.775,1.02,0.883,0.902
SW 1573,0.194,0.163,0.179,0.271,0.183,0.477,0.416,0.306,0.466,0.152,0.702,0.799,0.842,0.604,0.63,0.45,0.368,0.331,0.365,0.345
H3255,0.628,0.612,0.488,0.55,0.607,0.561,0.562,0.515,0.532,0.559,1.16,0.966,,1.01,1.1,0.331,0.393,,0.346,0.37
EMC-BAC-2,0.286,0.297,0.286,0.333,0.32,0.511,0.531,0.46,0.559,0.532,0.842,0.853,0.775,0.834,0.797,0.475,0.589,0.582,0.516,0.476
CAL-12T,0.292,0.282,0.248,0.21,0.244,0.697,0.685,0.678,0.707,0.784,0.861,0.874,0.87,0.786,0.816,0.666,0.597,0.554,0.591,0.529
NCI-H838,0.242,0.249,0.242,0.255,0.254,0.733,0.779,0.759,0.725,0.764,1.03,1.04,1.1,0.943,0.821,0.551,0.592,0.542,0.563,0.41
NCI-H1944,0.264,0.267,0.262,0.245,0.279,0.475,0.385,0.403,0.432,0.403,,1.18,1.09,1.12,1.07,0.17,0.213,0.193,0.208,0.204
NCI-H1437,0.429,0.403,0.412,0.322,0.439,0.666,0.632,0.6,0.562,0.475,1.12,1.26,1.06,1.13,0.982,0.301,0.374,0.284,0.326,0.322

# Source: the supplement of paper PMC10307832
